In US20080221161A1, “HETEROCYCLIC MODULATORS OF TGR5 FOR TREATMENT OF DISEASE” (KALYPSYS, INC., priority 2007, published 2008):
Where a name gives a salt, the structure may show the parent alone.

Target: T1, human TGR5 (Homo sapiens, UniProt Q8TDU6)
T1 construct: expressed in transfected cells; host or cells: HEK-293 cells, stably transfected (pcDNA 3.1, Fugene6, geneticin selection)
T1 sequence (Q8TDU6 1-330): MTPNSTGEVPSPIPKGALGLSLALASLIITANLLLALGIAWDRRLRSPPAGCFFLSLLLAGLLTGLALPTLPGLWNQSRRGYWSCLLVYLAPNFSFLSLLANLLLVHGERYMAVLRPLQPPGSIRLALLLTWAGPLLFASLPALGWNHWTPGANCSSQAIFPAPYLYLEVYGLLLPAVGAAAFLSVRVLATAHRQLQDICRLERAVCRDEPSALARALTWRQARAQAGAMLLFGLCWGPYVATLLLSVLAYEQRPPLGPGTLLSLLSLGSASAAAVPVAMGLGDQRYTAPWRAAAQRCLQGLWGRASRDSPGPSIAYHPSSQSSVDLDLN
Assay: cAMP production assay in HEK293-TGR5 cells
Format: cell-based
Settings: HEK293 cells stably expressing human TGR5; 30 minutes stimulation; LANCE cAMP TR-FRET; read-out: cAMP Production in 293-TGR5 Cells EC50
Description: HEK293 cells stably expressing TGR5 (HEK293-TGR5) were established by stably transfecting HEK-293 cells with an expression vector (pcDNA 3.1, Invetrogen) inserted with human TGR5 cDNA using Fugene6 (Roche, Indianapolis, Ind.) according to conventional methods. Cells were grown in DMEM (invitrogen, Carlsbad, Calif.) supplemented with 10% FBS, 1% penicillin/streptomycin under geneticin selection. The presence of TGR5 transcripts in these cells was confirmed using branched DNA (bDNA, Genospectra, Inc., Fremont Calif.) following the manufacturer's protocol and using specific probes for human TGR5. cAMP production assay was performed in high throughput 1536 well format using LANCE cAMP detection kit (Perkin Elmer Inc., Boston, Mass.) according to the manufacturer's protocol. Briefly, HEK293-TGR5 cells were harvested using non-enzymatic cell dissociation buffer (Invitrogen, Carlsbad, Calif.) and suspended in DMEM supplemented with 0.1% FBS at a density of 800,000 cells/ml. Alexa antibody was added to the cell suspension, and 4 ul of the mixture was dispensed in white opaque tissue culture treated Greiner 1536 well plates (USA Scientific, Inc., Ocala, Fla.). After an overnight incubation at 37C in an atmosphere of 10% CO2 and 95% humidity, 1 ul of 5 mM IBMX (Sigma, St. Louis, Mo.) solution in DMEM was dispensed for a final concentration of 1 mM. Cells were then stimulated with test compounds for 30 minutes, after which time 5 ul of detection reagent was added and incubated for 1-7 hrs at room temperature. TR-FRET signal was detected using the Viewlux (Perkin Elmer Inc., Boston Mass.). EC50 values were determined using Graph Pad Prizm analysis (GraphPad Software, Inc).

EC50, > 10 µM:
CCOC(=O)c1ccc2cc(CNCCc3ccc(Br)cc3)c(-c3ccsc3)nc2c1 [Example 137, Ethyl 3-((4-bromophenethylamino)methyl)-2-(thiophen-3-yl)quinoline-7-carboxylate]
COc1ccc2cc(CNCc3ccc4c(c3)OCO4)c(-c3ccsc3)nc2c1 [Example 64, 1-(Benzo[d][1,3]dioxol-5-yl)-N-((7-methoxy-2-(thiophen-3-yl)quinolin-3-yl)methyl)methanamine]
Oc1ccc2cc(CNCCc3ccc(Br)cc3)c(-c3ccoc3)nc2c1 [Example 109, 3-((4-Bromophenethylamino)methyl)-2-(furan-3-yl)quinolin-7-ol]
COc1ccc2cc(CNCCc3ccc(Cl)cc3)c(Sc3ccncc3)nc2c1 [Example 95, 2-(4-Chlorophenyl)-N-((7-methoxy-2-(pyridin-4-ylthio)quinolin-3-yl)methyl)ethanamine]
COc1ccc2nc(-c3ccsc3)c(CNCCc3ccc(Cl)cc3)cc2c1 [Example 27, 2-(4-Chlorophenyl)-N-((6-methoxy-2-(thiophen-3-yl)quinolin-3-yl)methyl)ethanamine]
Oc1cc2cc(CNCCc3ccc(Br)cc3)c(-c3ccsc3)nc2cc1Cl [Example 124, 3-((4-Bromophenethylamino)methyl)-7-chloro-2-(thiophen-3-yl)quinolin-6-ol]
Clc1ccc(CCNCc2cc3ccccc3nc2-c2ccsc2)cc1 [Example 29, 2-(4-Chlorophenyl)-N-((2-(thiophen-3-yl)quinolin-3-yl)methyl)-ethanamine]
COc1ccc2cc(CN(C)CCc3ccc(Cl)cc3)c(-c3ccsc3)nc2c1 [Example 35, 2-(4-Chlorophenyl)-N-((7-methoxy-2-(thiophen-3-yl)quinolin-3-yl)methyl)-N-methylethanamine]
CN(C)c1ccc2cc(CNCCc3ccc(Br)cc3)c(-c3ccsc3)nc2c1 [Example 89, 3-((4-Bromophenethylamino)methyl)-N,N-dimethyl-2-(thiophen-3-yl)quinolin-7-amine]
COc1ccc2c(C)c(CNCCc3ccc(Br)cc3)c(-c3ccsc3)nc2c1 [Example 129, 2-(4-Bromophenyl)-N-((7-methoxy-4-methyl-2-(thiophen-3-yl)quinolin-3-yl)methyl)ethanamine]
Cc1cccc2cc(CNCCc3ccc(Cl)cc3)c(-c3ccsc3)nc12 [Example 4, 2-(4-Chlorophenyl)-N-((8-methyl-2-(thiophen-3-yl)quinolin-3-yl)methyl)ethanamine]
COc1ccc2cc(CNCc3ccc(OC(F)(F)F)cc3)c(-c3cccnc3)nc2c1 [Example 10, 1-(7-Methoxy-2-(pyridin-3-yl)quinolin-3-yl)-N-(4-(trifluoromethoxy)benzyl)methanamine]
COc1ccc2cc(C(C)NCCc3ccc(Br)cc3)c(-c3ccsc3)nc2c1 (racemic) [Example 143, (±)-N-(4-Bromophenethyl)-1-(7-methoxy-2-(thiophen-3-yl)quinolin-3-yl)ethanamine]
COc1cc2nc(-c3ccsc3)c(CNCc3ccc(C(F)(F)F)cc3)cc2cc1O [Example 122, 7-Methoxy-2-(thiophen-3-yl)-3-((4-(trifluoromethyl)benzylamino)methyl)quinolin-6-ol]
CCOc1ccc2cc(CNCCc3ccc(Br)cc3)c(-c3cccnc3)nc2c1 [Example 45, 2-(4-Bromophenyl)-N-((7-ethoxy-2-(pyridin-3-yl)quinolin-3-yl)methyl)ethanamine]
COc1cc(OC)c(CNCc2cc3ccc(OC)cc3nc2-c2ccncc2)c(OC)c1 [Example 74, 1-(7-Methoxy-2-(pyridin-4-yl)quinolin-3-yl)-N-(2,4,6-trimethoxybenzyl)methanamine]
COc1ccc2cc(CNCCc3ccc(Br)cc3)c(-c3cscc3C)nc2c1 [Example 56, 2-(4-Bromophenyl)-N-((7-methoxy-2-(4-methylthiophen-3-yl)quinolin-3-yl)methyl)ethanamine]
COc1ccc2cc(CNCCc3ccc(Br)cc3)c(O)nc2c1 [Example 149, 3-((4-Bromophenethylamino)methyl)-7-methoxyquinolin-2(1H)-one hydrochloride]
COc1ccc2cc(CNCCc3ccc(Cl)cc3)c(-c3nccs3)nc2c1 [Example 31, 2-(4-Chlorophenyl)-N-((7-methoxy-2-(thiazol-2-yl)quinolin-3-yl)methyl)ethanamine]
COc1cc2cc(CNCCc3ccc(Br)cc3)c(-c3ccsc3)nc2cc1F [Example 125, 2-(4-Bromophenyl)-N-((7-fluoro-6-methoxy-2-(thiophen-3-yl)quinolin-3-yl)methyl)ethanamine]
Cc1cc2nc(-c3ccsc3)c(CNCCc3ccc(Br)cc3)cc2cc1O [Example 132, 3-((4-Bromophenethylamino)methyl)-7-methyl-2-(thiophen-3-yl)quinolin-6-ol]
COc1ccc2cc(CNCCc3ccc(Br)cc3)c(OC)nc2c1 [Example 148, 2-(4-Bromophenyl)-N-((2,7-dimethoxyquinolin-3-yl)methyl)ethanamine]
CCOc1ccc2cc(CNCc3ccc(C(F)(F)F)cc3)c(-c3cccnc3)nc2c1 [Example 46, 1-(7-Ethoxy-2-(pyridin-3-yl)quinolin-3-yl)-N-(4-(trifluoromethyl)benzyl)methanamine]
COc1ccc2cc(CNCc3cccnc3)c(-c3ccsc3)nc2c1 [Example 72, 1-(7-Methoxy-2-(thiophen-3-yl)quinolin-3-yl)-N-(pyridin-3-ylmethyl)methanamine]
COc1cc2cc(CNCCc3ccc(Br)cc3)c(-c3ccsc3)nc2cc1Cl [Example 123, 2-(4-Bromophenyl)-N-((7-chloro-6-methoxy-2-(thiophen-3-yl)quinolin-3-yl)methyl)ethanamine]

EC50, < 10 µM:
OCc1ccc2cc(CNCCc3ccc(Br)cc3)c(-c3ccsc3)nc2c1 [Example 141, (3-((4-Bromophenethylamino)methyl)-2-(thiophen-3-yl)quinolin-7-yl)methanol]
COc1ccc2cc(CNCc3cccc(C(F)(F)F)c3)c(-c3ccsc3)nc2c1 [Example 3, 1-(7-Methoxy-2-(thiophen-3-yl)quinolin-3-yl)-N-(3-(trifluoromethyl)benzyl)methanamine]
COc1ccc2cc(CNCCc3ccc(Cl)cc3)c(-c3ccncc3)nc2c1 [Example 22, 2-(4-Chlorophenyl)-N-((7-methoxy-2-(pyridin-4-yl)quinolin-3-yl)methyl)ethanamine]
COc1cc2nc(-c3ccsc3)c(CNCCc3ccc(Br)cc3)cc2cc1F [Example 146, 2-(4-Bromophenyl)-N-((6-fluoro-7-methoxy-2-(thiophen-3-yl)quinolin-3-yl)methyl)-ethanamine]
N#Cc1ccc2cc(CNCCc3ccc(Br)cc3)c(-c3ccsc3)nc2c1 [Example 136, 3-((4-Bromophenethylamino)methyl)-2-(thiophen-3-yl)quinoline-7-carbonitrile]
COc1ccc2cc(CNCCc3cccnc3)c(-c3ccncc3)nc2c1 [Example 76, N-((7-Methoxy-2-(pyridin-4-yl)quinolin-3-yl)methyl)-2-(pyridin-3-yl)ethanamine]
COc1ccc2cc(CNCCc3ccc(Cl)cc3)c(-c3ncco3)nc2c1 [Example 38, 2-(4-Chlorophenyl)-N-((7-methoxy-2-(oxazol-2-yl)quinolin-3-yl)methyl)ethanamine]
COc1ccc2cc(CNCc3ccc(Cl)c(Cl)c3)c(-c3ccsc3)nc2c1 [Example 66, N-(3,4-Dichlorobenzyl)-1-(7-methoxy-2-(thiophen-3-yl)quinolin-3-yl)methanamine]
CCOc1ccc2cc(CNCCc3ccc(Cl)cc3)c(-c3ccsc3)nc2c1 [Example 50, 2-(4-Chlorophenyl)-N-((7-ethoxy-2-(thiophen-3-yl)quinolin-3-yl)methyl)ethanamine]
Oc1cc2cc(CNCCc3ccc(Br)cc3)c(-c3ccsc3)nc2cc1F [Example 126, 3-((4-Bromophenethylamino)methyl)-7-fluoro-2-(thiophen-3-yl)quinolin-6-ol]
